The structures appear in SMILES notation.

The values below come from patent US7960376B2, “Benzo-fused heterocycles” (priority 2007, dated 2011).

In one test the target is T1, rat CB2 receptor (rCB2) (Rattus norvegicus, UniProt Q9QZN9).
T1 sequence (Q9QZN9 1-360): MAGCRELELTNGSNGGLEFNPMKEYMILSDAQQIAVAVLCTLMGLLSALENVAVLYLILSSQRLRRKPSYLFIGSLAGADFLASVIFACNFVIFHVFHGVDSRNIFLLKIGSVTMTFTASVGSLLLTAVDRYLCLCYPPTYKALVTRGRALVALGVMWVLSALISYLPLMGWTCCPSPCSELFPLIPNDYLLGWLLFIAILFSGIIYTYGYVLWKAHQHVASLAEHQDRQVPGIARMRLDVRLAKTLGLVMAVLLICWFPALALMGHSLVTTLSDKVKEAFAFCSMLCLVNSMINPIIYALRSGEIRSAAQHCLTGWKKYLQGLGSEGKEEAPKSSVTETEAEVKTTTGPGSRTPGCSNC
The test is described as follows: cell-based. The format is cell-based. The settings on record: intracellular cAMP, CHO-K1 cells, NKH-477 prestimulated; + agonist, − inverse agonist.

In test [1] the target is human CB2 receptor (hCB2) (Homo sapiens, UniProt P34972). The test is described as follows: cell-based. The format is cell-based. The settings on record: intracellular cAMP, CHO-K1 cells, NKH-477 prestimulated; + agonist, − inverse agonist.
Chain of human CB2 receptor (hCB2) (P34972 whole entry): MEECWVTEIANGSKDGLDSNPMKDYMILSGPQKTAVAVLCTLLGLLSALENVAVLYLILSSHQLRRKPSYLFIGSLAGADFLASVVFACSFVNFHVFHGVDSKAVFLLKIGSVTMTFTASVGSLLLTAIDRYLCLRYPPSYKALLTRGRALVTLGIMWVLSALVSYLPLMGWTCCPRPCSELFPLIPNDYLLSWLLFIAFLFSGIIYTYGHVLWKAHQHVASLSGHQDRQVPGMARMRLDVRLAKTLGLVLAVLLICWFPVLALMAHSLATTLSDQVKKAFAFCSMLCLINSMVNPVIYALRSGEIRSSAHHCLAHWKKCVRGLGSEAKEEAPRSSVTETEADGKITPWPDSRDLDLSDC

In the case of `CC(C)NC(=O)c1ccc2c(c1)N(S(=O)(=O)c1ccccc1)CCS2` [Example 52, N-isopropyl-4-(phenylsulfonyl)-3,4-dihydro-2H-benzo[b][1,4]thiazine-6-carboxamide], the “rCB2 EC50 range” value at rat CB2 receptor (rCB2) is recorded as “+A”. Moreover, the “hCB2 EC50 range” value in test [1] is on record as “+C”.
`CC(C)(C)NC(=O)c1ccc2c(c1)N(S(C)(=O)=O)CCS2` [Example 53, N-tert-butyl-4-(methylsulfonyl)-3,4-dihydro-2H-benzo[b][1,4]thiazine-6-carboxamide]: on rat CB2 receptor (rCB2), the “rCB2 EC50 range” value is reported as “+D”. In addition, the “hCB2 EC50 range” value in test [1] was “+E”.
In the case of `CC(C)CNC(=O)c1ccc2c(c1)N(S(C)(=O)=O)CCS2` [Example 54, N-isobutyl-4-(methylsulfonyl)-3,4-dihydro-2H-benzo[b][1,4]thiazine-6-carboxamide], the “rCB2 EC50 range” value at rat CB2 receptor (rCB2) is “+D”. Besides, the “hCB2 EC50 range” value in test [1] was “+E”.
The like results for `CS(=O)(=O)N1CCSc2ccc(C(=O)NC3CCCC3)cc21` [Example 55, N-cyclopentyl-4-(methylsulfonyl)-3,4-dihydro-2H-benzo[b][1,4]thiazine-6-carboxamide] were, in that order, “+D” and “+E”.
`CC(C)NC(=O)c1ccc2c(c1)N(S(C)(=O)=O)CCS2` [Example 57, N-isopropyl-4-(methylsulfonyl)-3,4-dihydro-2H-benzo[b][1,4]thiazine-6-carboxamide]: the “rCB2 EC50 range” value at rat CB2 receptor (rCB2) is recorded as “+D”. In test [1], the “hCB2 EC50 range” value is on record as “+E”.
As for `CC(C)CNC(=O)c1ccc2c(c1)N(S(=O)(=O)c1ccccc1)CCO2` [Example 59, N-isobutyl-4-(phenylsulfonyl)-3,4-dihydro-2H-benzo [b][1,4]oxazine-6-carboxamide], on rat CB2 receptor (rCB2), the “rCB2 EC50 range” value is reported as “+C”. In test [1], the “hCB2 EC50 range” value is recorded as “+C”.
On to `CCN(CC)C(=O)c1ccc2c(c1)N(S(=O)(=O)c1ccccc1)CCS2` [Example 65, N,N-diethyl-4-(phenylsulfonyl)-3,4-dihydro-2H-benzo[b][1,4]thiazine-6-carboxamide], for which the “rCB2 EC50 range” value at rat CB2 receptor (rCB2) was “+C”. Further, the “hCB2 EC50 range” value in test [1] was “+C”.
For `O=C(c1ccc2c(c1)N(S(=O)(=O)c1ccccc1)CCS2)N1CCCC1` [Example 66, (4-(phenylsulfonyl)-3,4-dihydro-2H-benzo[b][1,4]thiazin-6-yl)(pyrrolidin-1-yl)methanone], on rat CB2 receptor (rCB2), the “rCB2 EC50 range” value was “+D”. Moreover, the “hCB2 EC50 range” value in test [1] is recorded as “+D”.
As for `O=C(c1ccc2c(c1)N(S(=O)(=O)c1ccccc1)CCS2)N1CCCCC1` [Example 67, (4-(phenylsulfonyl)-3,4-dihydro-2H-benzo[b][1,4]thiazin-6-yl)(piperidin-1-yl)methanone], the “rCB2 EC50 range” value at rat CB2 receptor (rCB2) is listed as “+C”. In test [1], the “hCB2 EC50 range” value is “+D”.
The like results for `O=C(c1ccc2c(c1)N(S(=O)(=O)c1ccccc1)CCS2)N1CCOCC1` [Example 68] were, in that order, “+D” and “+D”.
In the case of `CN(C)C(=O)c1ccc2c(c1)N(S(=O)(=O)c1ccc(F)cc1)CCS2` [Example 69, 4-(4-fluorophenylsulfonyl)-N,N-dimethyl-3,4-dihydro-2H-benzo[b][1,4]thiazine-6-carboxamide], the “rCB2 EC50 range” value at rat CB2 receptor (rCB2) is given as “+D”. In addition, the “hCB2 EC50 range” value in test [1] is “+E”.
Regarding `CCN(CC)C(=O)c1ccc2c(c1)N(S(=O)(=O)c1ccc(F)cc1)CCS2` [Example 70, N,N-diethyl-4-(4-fluorophenylsulfonyl)-3,4-dihydro-2H-benzo[b][1,4]thiazine-6-carboxamide], the “rCB2 EC50 range” value on rat CB2 receptor (rCB2) is given as “+C”. For the same compound, in test [1], the “hCB2 EC50 range” value is “+D”.
Turning to `CN(C)C(=O)c1ccc2c(c1)N(S(=O)(=O)c1ccc(C(F)(F)F)cc1)CCS2` [Example 72, N,N-dimethyl-4-(4-(trifluoromethyl)phenylsulfonyl)-3,4-dihydro-2H-benzo[b][1,4]thiazine-6-carboxamide], the “rCB2 EC50 range” value on rat CB2 receptor (rCB2) is “+C”. In addition, the “hCB2 EC50 range” value in test [1] is reported as “+C”.
